We go through 16 compounds from patent US7157498B2, “Diamines having a CaSR modulating activity” (Centre National de la Recherche Scientifique (CNRS), priority 2000, dated 2007).

Data set [1] concerns the target T1, CaSR (Rattus norvegicus, UniProt P48442).
T1 construct: expressed in transfected cells; host or cells: CHO (Chinese hamster ovary) cells
T1 sequence (P48442 20-1079): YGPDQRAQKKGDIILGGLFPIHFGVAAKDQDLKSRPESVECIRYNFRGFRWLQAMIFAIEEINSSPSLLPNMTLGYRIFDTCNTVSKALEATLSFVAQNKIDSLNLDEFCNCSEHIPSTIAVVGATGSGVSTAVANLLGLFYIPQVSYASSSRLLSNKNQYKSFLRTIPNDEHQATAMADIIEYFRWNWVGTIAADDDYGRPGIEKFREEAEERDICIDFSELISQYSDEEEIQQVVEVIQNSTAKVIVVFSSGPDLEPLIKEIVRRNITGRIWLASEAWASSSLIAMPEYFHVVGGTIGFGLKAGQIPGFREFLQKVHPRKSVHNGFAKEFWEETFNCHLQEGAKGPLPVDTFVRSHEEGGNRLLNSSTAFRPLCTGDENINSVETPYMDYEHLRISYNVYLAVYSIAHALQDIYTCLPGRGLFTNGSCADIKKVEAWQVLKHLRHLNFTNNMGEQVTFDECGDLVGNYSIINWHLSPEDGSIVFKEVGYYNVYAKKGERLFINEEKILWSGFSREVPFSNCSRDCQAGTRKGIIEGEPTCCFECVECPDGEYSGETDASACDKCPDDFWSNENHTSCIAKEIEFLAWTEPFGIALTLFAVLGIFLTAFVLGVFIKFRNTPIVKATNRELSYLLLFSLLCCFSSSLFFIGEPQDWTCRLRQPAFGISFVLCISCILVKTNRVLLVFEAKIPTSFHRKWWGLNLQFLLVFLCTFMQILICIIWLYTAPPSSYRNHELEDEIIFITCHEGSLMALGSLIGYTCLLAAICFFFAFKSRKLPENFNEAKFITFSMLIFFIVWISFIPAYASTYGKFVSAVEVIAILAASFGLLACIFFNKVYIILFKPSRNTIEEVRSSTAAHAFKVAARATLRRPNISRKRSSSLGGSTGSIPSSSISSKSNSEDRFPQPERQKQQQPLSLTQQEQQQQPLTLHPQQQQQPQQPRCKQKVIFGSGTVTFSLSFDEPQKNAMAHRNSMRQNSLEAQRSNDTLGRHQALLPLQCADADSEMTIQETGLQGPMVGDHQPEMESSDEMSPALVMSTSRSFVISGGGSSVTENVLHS
In words: Accumulation of tritiated inositol phosphates [3H]IP induced by 9 mM extracellular Ca2+ in transfected CHO(CaSR) cells. It is filed as cell-based. The settings on record: for remaining activity at 10 µM: 0.5 h, compounds at 10 μM, induced by 9 mM Ca2+, control = 9 mM (Ca2+)e alone = 100, mean of 2 to 4 experiments, read-out: Accumulation of [^3H]IP % relative to the control; for remaining activity at 10 µM / inhibition of the accumulation of [^3H]IP induced by 9 mM (Ca^2+)e: CHO(CaSR) cells; for inhibition of the accumulation of [^3H]IP induced by 9 mM (Ca^2+)e / type of activity on production of [^3H]IP (calcimimetic/calcilytic): 10 μM compound, 9 mM (Ca2+)e. The text has this:
Complementary DNA encoding rat CaSR has been isolated from a rat striatum cDNA library (Ruat et al., Proc. Natl. Acad. Sci., 1995, vol. 92, p. 3161–3165). This receptor is identical with respect to its amino acid sequence to that expressed in the other tissues. Transfected Chinese hamster ovary_(CHO) cells expressing rat CaSR(CHO(CaSR)) have been characterized and the chemical signals (second messengers) induced by the activation of this receptor have been analyzed. Thus, a biochemical test which makes it possible to measure the accumulation of tritiated inositol phosphates [^3H]IP in response to the activation of the receptor has been developed (Ruat et al., J. Biol. Chem., 1996, vol. 271, p. 5972–5975; Ferry et al., Biochem. Biophys. Res. Commun., 1997, vol. 238, p. 866–873).
The technique for measuring the accumulation of tritiated inositol phosphates [^3H]IP which is used is that described in Ruat et al., J. Biol. Chem., 1996, vol. 271, p. 5972-5975. Only the mode of incubating the compounds is modified. After a preincubation of 15 min of the compounds according to the invention in the presence of a basal concentration of (Ca^2+)e equal to 2 mM, the compounds are incubated for 30 min in the presence of a (Ca^2+)e concentration of 4 or 9 mM. The results, mean of 2 to 4 independent experiments each carried out in triplicate, are grouped together in Table 2.
The activity of the compounds is expressed as a percentage of the control activity measured in the presence of (Ca^2+)e alone of concentration 4 mM or 9 mM.

Data set [2] has as its system cell proliferation in the parathyroid gland. The settings on record: rat model reproducing chronic renal insufficiency; cited from earlier work.
The conditions of data set [3]: clinical trials Phase I-II; cited from earlier work.
For data set [4], the target named is T1, CaSR. In words: Specificity: [3H]IP accumulation by compound alone in CHO(CaSR) cells, relative to basal level at 2 mM Ca2+. It is filed as cell-based. The settings on record: compound alone at 10 μM; CHO(CaSR) cells (sentence also names control CHO(WT*) cells). The method, then:
(§1) To assess the specificity of the antagonist activity of the molecules according to the invention, the effect of one of them, PHD 263, was studied under various calcium conditions, in the presence or otherwise of ATP on CHO(WT*) and CHO(CaSR) cells. […] The accumulation of tritiated inositol phosphates is expressed as a percentage of the basal level observed in the presence of 2 mM Ca^2+ (100) in the CHO(WT*) or CHO(CaSR) cells.

Data set [5] relates to CHO(WT*) cells. In words: Specificity: [3H]IP accumulation in control CHO(WT*) cells not expressing CaSR, various calcium, with or without ATP. The format is cell-based, Chinese hamster. The settings on record: PHD 263 10 μM. The method, then: as §1
PHD 263 (10 μM) has the same effect on the [^3H]IP response in the CHO(WT*) cells in the presence of 2 or 4 mM calcium, indicating an absence of a nonspecific effect of the compound linked to the variation of [Ca^2+]e.

One may read the melting point as the temperature, or range, at which the solid turns liquid.

SMILES strings stand for the structures.

As to `COc1ccc(OC)c(S(=O)(=O)NC2CCCC[C@@H]2NC(C)c2cccc3ccccc23)c1` (some centres unmarked) [AK 115], in data set [1], the remaining activity at 10 µM worked out at 100 ± 4%.
Consider `CC(N[C@H]1CCCCC1NS(=O)(=O)c1ccc2ccccc2c1)c1cccc2ccccc12` (some centres unmarked) [PHD 404], for which, in data set [1], the remaining activity at 10 µM worked out at 39 ± 7%.
Consider `CC(N[C@H]1CCCCC1NS(=O)(=O)c1ccc(Cl)c(Cl)c1Cl)c1cccc2ccccc12` (some centres unmarked) [AK 117], for which the remaining activity at 10 µM in data set [1] came out at 42 ± 5%.
As for `CC(N[C@H]1CCCCC1NS(=O)(=O)c1cccc(Cl)c1)c1cccc2ccccc12` (some centres unmarked) [AK 116], the remaining activity at 10 µM in data set [1] is 40 ± 5%.
Turning to `CC(N[C@H]1CCCCC1NS(=O)(=O)c1ccc(Cl)cc1)c1cccc2ccccc12` (some centres unmarked) [PHD 406], the remaining activity at 10 µM in data set [1] is 28 ± 1%.
Take `COc1cccc([C@@H](C)NCCCc2ccccc2Cl)c1` [NPS-R-568]: the “reduction of cell proliferation observed in the parathyroid gland” value in data set [2] is on record as 20–50%. Further, the bioavailability result in data set [3] was “low bioavailability”.
Consider `CC(N[C@H]1CCCCC1NS(=O)(=O)c1ccc([N+](=O)[O-])cc1)c1cccc2ccccc12` (some centres unmarked) [PHD 397], for which the remaining activity at 10 µM in data set [1] is 43 ± 1%.
Regarding `CC(N[C@H]1CCCCC1NS(=O)(=O)c1ccc(OC(F)(F)F)cc1)c1cccc2ccccc12.Cl` (some centres unmarked) [PHD 401], in data set [1], the “inhibition of the accumulation of [^3H]IP induced by 9 mM (Ca^2+)e” value (“inhibition” for short) was 82% and the remaining activity at 10 µM is 18 ± 3%.
Turning to `CC(N[C@H]1CCCCC1NS(=O)(=O)c1ccccc1Cl)c1cccc2ccccc12` (some centres unmarked) [PHD 350], in data set [1], the “inhibition” value was 25% and the remaining activity at 10 µM came to 74 ± 2%.
`CC(N[C@H]1CCCCC1NS(=O)(=O)c1ccc(C(F)(F)F)cc1)c1cccc2ccccc12` (some centres unmarked) [PHD 403]: the remaining activity at 10 µM in data set [1] is 21 ± 1%.
As for `CC(N[C@H]1CCCCC1NCc1ccccc1Cl)c1cccc2ccccc12.Cl.Cl` (some centres unmarked) [PHD 346], in data set [1], the “type of activity on production of [^3H]IP (calcimimetic/calcilytic)” value is reported as “calcimimetic activity” and the remaining activity at 10 µM was determined as 110 ± 6%.
Regarding `COc1ccc(S(=O)(=O)NC2CC=CC[C@@H]2NC(C)c2cccc3ccccc23)cc1` (some centres unmarked) [PHD 511], the remaining activity at 10 µM in data set [1] is 75 ± 10%.
For the compound `CC(N[C@H]1CCCCC1NCc1ccc(F)cc1)c1cccc2ccccc12.Cl.Cl` (some centres unmarked) [PHD 348], in data set [1], the “type of activity on production of [^3H]IP (calcimimetic/calcilytic)” value is “calcimimetic activity” and the remaining activity at 10 µM amounted to 119 ± 12%.
In the case of `CC(N[C@H]1CCCCC1NS(=O)(=O)c1ccccc1)c1cccc2ccccc12` (some centres unmarked) [PHD 408], in data set [1], the remaining activity at 10 µM was 56 ± 4%.
Turning to `COc1ccc(S(=O)(=O)NC2CCCC[C@@H]2NC(C)c2cccc3ccccc23)cc1.Cl` (some centres unmarked) [PHD 263, N1-(4-methoxybenzenesulfonyl)-N-2-[1-(1-naphthyl)ethyl]cyclohexane-1,2-diamine], the melting point is 135 to 140 °C (dec.). In addition, in data set [1], the “inhibition” value came out at 64% and the remaining activity at 10 µM stood at 37 ± 5%. Also, the “accumulation of [^3H]IP as percentage of the basal level observed at 2 mM Ca2+ (100)” value in data set [4] came out at 124±10%. The “effect on the ATP-induced [^3H]IP response” value in data set [5] (CHO(WT) cells, in the presence of ATP) is recorded as “adds to that of ATP”. In data set [5] (CHO(WT*) cells, 2 or 4 mM calcium), the “effect on the [^3H]IP response at 2 versus 4 mM calcium” value was “same effect”.
Consider `COc1ccc(S(=O)(=O)NC2CCCC[C@@H]2NC(C)c2cccc3ccccc23)cc1OC` (some centres unmarked) [PHD 349], for which the remaining activity at 10 µM in data set [1] was 64 ± 5%.
